The IC50 is the midpoint of a concentration-inhibition curve. Lower therefore signals inhibition by little substance.

SMILES strings stand for the structures.

T1 sequence (P53350 whole entry): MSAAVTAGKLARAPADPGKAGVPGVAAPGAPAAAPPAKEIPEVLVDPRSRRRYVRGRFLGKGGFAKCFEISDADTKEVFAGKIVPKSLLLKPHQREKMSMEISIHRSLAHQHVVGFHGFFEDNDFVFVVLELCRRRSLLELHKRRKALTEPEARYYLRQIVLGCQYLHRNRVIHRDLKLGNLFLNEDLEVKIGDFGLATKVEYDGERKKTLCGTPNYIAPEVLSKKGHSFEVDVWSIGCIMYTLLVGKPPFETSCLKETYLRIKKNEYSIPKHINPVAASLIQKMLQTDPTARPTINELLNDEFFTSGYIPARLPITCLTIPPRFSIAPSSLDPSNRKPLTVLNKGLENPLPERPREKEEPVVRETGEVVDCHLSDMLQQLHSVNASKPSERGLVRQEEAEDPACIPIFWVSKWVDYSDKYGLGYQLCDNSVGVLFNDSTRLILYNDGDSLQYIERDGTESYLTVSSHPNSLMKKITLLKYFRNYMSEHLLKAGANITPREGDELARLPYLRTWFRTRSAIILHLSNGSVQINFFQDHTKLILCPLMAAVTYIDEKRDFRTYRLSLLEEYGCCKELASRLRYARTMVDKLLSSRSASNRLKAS

This assay concerns the target T1, PLK1 (Homo sapiens, UniProt P53350).
T1 construct: Full-length, active GST-PLK1 is purified from Sf9 insect cells; made in house; host or cells: Sf9 insect cells
Kind of assay: Biochemical Characterization Assay: HTRF kinase assay, GST-PLK1 phosphorylation of GST-p53. To be noted: GST-PLK1, GST-p53 substrate. In outline:
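Full-length active GST-PLK1 (Sf9, 3 ug/mL) phosphorylated full-length GST-p53 (E. coli) in Kinase Assay Buffer for 35 min at 37 °C. Stopped with EDTA; phospho-p53 detected by HTRF with anti-phospho-p53, Eu-anti-rabbit and APC-anti-GST antibodies.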
Background: TR-FRET usually uses a lanthanide donor and a delayed reading to cut background.
In the case of `CN(C)CCCNC(=O)c1ccc(Nc2ncc3c(n2)N(C2CCCC2)CC(F)(F)C(=O)N3C)c(F)c1` [Example I-227, 4-(9-cyclopentyl-7,7-difluoro-5-methyl-6-oxo-6,7,8,9-tetrahydro-5H-pyrimido[4,5-b][1,4]diazepin-2-ylamino)-N-(3-dimethylamino-propyl)-3-fluoro-benzamide], the IC50 was in the range of 1 to 50 nM.
`CNC(=O)c1ccc(Nc2ncc3c(n2)N(C2CCCC2)CC(F)(F)C(=O)N3C)c(F)c1` [Example I-228, 4-(9-cyclopentyl-7,7-difluoro-5-methyl-6-oxo-6,7,8,9-tetrahydro-5H-pyrimido[4,5-b][1,4]diazepin-2-ylamino)-3-fluoro-N-methyl-benzamide] returned a half-maximal inhibitory concentration (IC50) of 1 to 50 nM.
On to `CN1C(=O)C(F)(F)CN(C2CCCC2)c2nc(Nc3ccc(C(=O)NC4CCN(C(=O)OC(C)(C)C)CC4)cc3F)ncc21` [Example I-229, 4-[4-(9-cyclopentyl-7,7-difluoro-5-methyl-6-oxo-6,7,8,9-tetrahydro-5H-pyrimido[4,5-b][1,4]diazepin-2-ylamino)-3-fluoro-benzoylamino]-piperidine-1-carboxylic acid tert-butyl ester], for which the IC50 was in the range of 1 to 50 nM.
`CN1C(=O)C(F)(F)CN(C2CCCC2)c2nc(Nc3ccc(C(=O)NC4CCNCC4)cc3F)ncc21` [Example I-230, 4-(9-cyclopentyl-7,7-difluoro-5-methyl-6-oxo-6,7,8,9-tetrahydro-5H-pyrimido[4,5-b][1,4]diazepin-2-ylamino)-3-fluoro-N-piperidin-4-yl-benzamide] showed an IC50 of 1 to 50 nM.
The result for `CN1C(=O)C(F)(F)CN(C2CCCC2)c2nc(Nc3ccc(C(N)=O)cc3F)ncc21` [Example I-231, 4-(9-cyclopentyl-7,7-difluoro-5-methyl-6-oxo-6,7,8,9-tetrahydro-5H-pyrimido[4,5-b][1,4]diazepin-2-ylamino)-3-fluoro-benzamide] reads 1 to 50 nM; that for `CN1CCC(NC(=O)c2cc(F)c(Nc3ncc4c(n3)N(C3CCCC3)CC(F)(F)C(=O)N4C)cc2F)CC1` [Example I-233, 4-(9-cyclopentyl-7,7-difluoro-5-methyl-6-oxo-6,7,8,9-tetrahydro-5H-pyrimido[4,5-b][1,4]diazepin-2-ylamino)-2,5-difluoro-N-(1-methyl-piperidin-4-yl)-benzamide], 1 to 50 nM; that for `CCN1CCC(NC(=O)c2cc(F)c(Nc3ncc4c(n3)N(C3CCCC3)CC(F)(F)C(=O)N4C)cc2F)CC1` [Example I-234, 4-(9-cyclopentyl-7,7-difluoro-5-methyl-6-oxo-6,7,8,9-tetrahydro-5H-pyrimido[4,5-b][1,4]diazepin-2-ylamino)-N-(1-ethyl-piperidin-4-yl)-2,5-difluoro-benzamide], 1 to 50 nM.
Under `CN1C(=O)C(F)(F)CN(C2CCCC2)c2nc(Nc3cc(F)c(C(=O)NC4CCOCC4)cc3F)ncc21` [Example I-235, 4-(9-cyclopentyl-7,7-difluoro-5-methyl-6-oxo-6,7,8,9-tetrahydro-5H-pyrimido[4,5-b][1,4]diazepin-2-ylamino)-2,5-difluoro-N-(tetrahydro-pyran-4-yl)-benzamide] stands 1 to 50 nM; under `CN(C)CCNC(=O)c1cc(F)c(Nc2ncc3c(n2)N(C2CCCC2)CC(F)(F)C(=O)N3C)cc1F` [Example I-236, 4-(9-cyclopentyl-7,7-difluoro-5-methyl-6-oxo-6,7,8,9-tetrahydro-5H-pyrimido[4,5-b][1,4]diazepin-2-ylamino)-N-(2-dimethylamino-ethyl)-2,5-difluoro-benzamide], 1 to 50 nM; under `CN(C)CCCNC(=O)c1cc(F)c(Nc2ncc3c(n2)N(C2CCCC2)CC(F)(F)C(=O)N3C)cc1F` [Example I-237, 4-(9-cyclopentyl-7,7-difluoro-5-methyl-6-oxo-6,7,8,9-tetrahydro-5H-pyrimido[4,5-b][1,4]diazepin-2-ylamino)-N-(3-dimethylamino-propyl)-2,5-difluoro-benzamide], 1 to 50 nM.
Under `CNC(=O)c1cc(F)c(Nc2ncc3c(n2)N(C2CCCC2)CC(F)(F)C(=O)N3C)cc1F` [Example I-238, 4-(9-cyclopentyl-7,7-difluoro-5-methyl-6-oxo-6,7,8,9-tetrahydro-5H-pyrimido[4,5-b][1,4]diazepin-2-ylamino)-2,5-difluoro-N-methyl-benzamide] stands 1 to 50 nM; under `CN1C(=O)C(F)(F)CN(C2CCCC2)c2nc(Nc3cc(F)c(C(=O)NC4CCN(C(=O)OC(C)(C)C)CC4)cc3F)ncc21` [Example I-239, 4-[4-(9-cyclopentyl-7,7-difluoro-5-methyl-6-oxo-6,7,8,9-tetrahydro-5H-pyrimido[4,5-b][1,4]diazepin-2-ylamino)-2,5-difluoro-benzoylamino]-piperidine-1-carboxylic acid tert-butyl ester], 51 to 500 nM; under `CN1C(=O)C(F)(F)CN(C2CCCC2)c2nc(Nc3cc(F)c(C(=O)NC4CCNCC4)cc3F)ncc21` [Example I-240, 4-(9-cyclopentyl-7,7-difluoro-5-methyl-6-oxo-6,7,8,9-tetrahydro-5H-pyrimido[4,5-b][1,4]diazepin-2-ylamino)-2,5-difluoro-N-piperidin-4-yl-benzamide], 1 to 50 nM.
Compound `CN1C(=O)C(F)(F)CN(C2CCCC2)c2nc(Nc3cc(F)c(C(N)=O)cc3F)ncc21` [Example I-241, 4-(9-cyclopentyl-7,7-difluoro-5-methyl-6-oxo-6,7,8,9-tetrahydro-5H-pyrimido[4,5-b][1,4]diazepin-2-ylamino)-2,5-difluoro-benzamide] gave an IC50 of 1 to 50 nM.
Compound `CN1CCC(NC(=O)c2ccc(Nc3ncc4c(n3)N(C3CCCC3)CC(F)(F)C(=O)N4C)c(F)c2F)CC1` [Example I-243] registered an IC50 of 1 to 50 nM.
For the compound `CCN1CCC(NC(=O)c2ccc(Nc3ncc4c(n3)N(C3CCCC3)CC(F)(F)C(=O)N4C)c(F)c2F)CC1` [Example I-244], the IC50 was 1 to 50 nM.
Under `CNC(=O)c1ccc(Nc2ncc3c(n2)N(C2CCCC2)CC(F)(F)C(=O)N3C)c(F)c1F` [Example I-245] stands 1 to 50 nM; under `COc1cc(C(=O)O)ccc1Nc1ncc2c(n1)N(C1CCCCC1)CC(F)(F)C(=O)N2C` [Example I-246, 4-(9-cyclohexyl-7,7-difluoro-5-methyl-6-oxo-6,7,8,9-tetrahydro-5H-pyrimido[4,5-b][1,4]diazepin-2-ylamino)-3-methoxy-benzoic acid], 1 to 50 nM.
Under `COc1cc(C(=O)NC2CCN(C)CC2)ccc1Nc1ncc2c(n1)N(C1CCCCC1)CC(F)(F)C(=O)N2C` [Example I-247, 4-(9-cyclohexyl-7,7-difluoro-5-methyl-6-oxo-6,7,8,9-tetrahydro-5H-pyrimido[4,5-b][1,4]diazepin-2-ylamino)-3-methoxy-N-(1-methyl-piperidin-4-yl)-benzamide] stands 1 to 50 nM; under `COc1cc(C(N)=O)ccc1Nc1ncc2c(n1)N(C1CCCCC1)CC(F)(F)C(=O)N2C` [Example I-248, 4-(9-cyclohexyl-7,7-difluoro-5-methyl-6-oxo-6,7,8,9-tetrahydro-5H-pyrimido[4,5-b][1,4]diazepin-2-ylamino)-3-methoxy-benzamide], 1 to 50 nM; under `CNC(=O)c1ccc(Nc2ncc3c(n2)N(C2CCCCC2)CC(F)(F)C(=O)N3C)c(OC)c1` [Example I-249, 4-(9-cyclohexyl-7,7-difluoro-5-methyl-6-oxo-6,7,8,9-tetrahydro-5H-pyrimido[4,5-b][1,4]diazepin-2-ylamino)-3-methoxy-N-methyl-benzamide], 1 to 50 nM.

The values above are taken from patent US8003785B2 (Takeda Pharmaceutical Company Limited, priority 2008, dated 2011).
